The values below come from ChEMBL document CHEMBL4811290, “Exploiting the hydrophobic channel of the NNIBP: Discovery of novel diarylpyrimidines as HIV-1 NNRTIs against wild-type and K103N mutant viruses” (Bioorg Med Chem, 2021).

Data set [1] is described as follows: Selectivity index, ratio of CC50 for human MT4 cells to EC50 for Antiviral activity against HIV-1 IIIB infected in human MT4 cells. The data set is classed as toxicity, cell-based. The note with it: read-out: Selectivity Index.
Data set [2] concerns Human immunodeficiency virus 1. In words: Antiviral activity against HIV1 harboring RT Y188L mutant infected in human MT4 cells assessed as inhibition of virus-induced cytopathic effect incubated for 5 days by MTT assay. In kind it is functional, organism-based. The note with it: Human immunodeficiency virus 1, MT4, 120 h. For orientation: Cytopathic effects are the visible damage that an infection or toxin causes in cultured cells.

A short description of data set [3]: Water solubility of compound at pH 7. In kind it is physicochemical.
For data set [4], the system named is Human immunodeficiency virus 1. In words: Antiviral activity against wild type HIV-1 IIIB infected in human MT4 cells assessed as inhibition of virus-induced cytopathic effect measured after 5 days by MTT assay. In kind it is functional, organism-based. The note with it: Human immunodeficiency virus 1, IIIB, MT4, 120 h.
Data set [5] relates to Human immunodeficiency virus 1. In words: Antiviral activity against HIV1 harboring RT E138K mutant infected in human MT4 cells assessed as inhibition of virus-induced cytopathic effect incubated for 5 days by MTT assay. In kind it is functional, organism-based. The note with it: Human immunodeficiency virus 1, MT4, 120 h.
Data set [6] is described as follows: Water solubility of compound at pH 7.4. In kind it is physicochemical.
A short description of data set [7]: Water solubility of compound at pH 2. In kind it is physicochemical.
In data set [8] the test system is Human immunodeficiency virus 1. In words: Antiviral activity against HIV1 harboring RT RES056 mutant infected in human MT4 cells assessed as inhibition of virus-induced cytopathic effect incubated for 5 days by MTT assay. The data set is classed as functional, organism-based. The note with it: Human immunodeficiency virus 1, MT4, 120 h.
The test system of data set [9] is Human immunodeficiency virus 1. In words: Antiviral activity against HIV1 harboring RT L100I mutant infected in human MT4 cells assessed as inhibition of virus-induced cytopathic effect incubated for 5 days by MTT assay. In kind it is functional, organism-based. The note with it: Human immunodeficiency virus 1, MT4, 120 h.
Data set [10] deals with Human immunodeficiency virus 1. In words: Antiviral activity against HIV1 harboring K103N mutant infected in human MT4 cells assessed as inhibition of virus-induced cytopathic effect incubated for 5 days by MTT assay. In kind it is functional, organism-based. The note with it: Human immunodeficiency virus 1, MT4, 120 h.
Data set [11] relates to Human immunodeficiency virus 1. In words: Antiviral activity against HIV1 harboring RT F227L/V106A mutant infected in human MT4 cells assessed as inhibition of virus-induced cytopathic effect incubated for 5 days by MTT assay. The data set is classed as functional, organism-based. The note with it: Human immunodeficiency virus 1, MT4, 120 h.
A short description of data set [12]: Cytotoxicity against mock-infected human MT4 cells incubated for 5 days by MTT assay. The data set is classed as cell-based. The note with it: time 5 day. In general terms: Formazan colour is commonly taken as a measure of viable cells.
The target in data set [13] is Human immunodeficiency virus type 1 reverse transcriptase (Human immunodeficiency virus 1, UniProt Q72547). In words: Inhibition of HIV-1 reverse transcriptase assessed as inhibition of biotin-dUTP incorporation into cDNA measured after 1 hr by ELISA. (An ELISA detects its analyte on a solid surface through an enzyme-linked reagent.)
For data set [14], the system named is Human immunodeficiency virus 1. In words: Antiviral activity against HIV1 harboring RT Y181C mutant infected in human MT4 cells assessed as inhibition of virus-induced cytopathic effect incubated for 5 days by MTT assay. The data set is classed as functional, organism-based. The note with it: Human immunodeficiency virus 1, MT4, 120 h.
Another data set relates to MT4. In words: Antiviral activity against wild type HIV-2 ROD infected in human MT4 cells assessed as inhibition of virus-induced cytopathic effect measured after 5 days by MTT assay. The data set is classed as functional, cell-based. The note with it: Human immunodeficiency virus 2, ISOLATE ROD, time 5.0 day.

In brackets after ≈: the same amount, converted by molar mass. Activity calls are given as the source filed them. No cut-off for these calls is given here.

`Cc1cc(C#CC=C2CCN(S(C)(=O)=O)CC2)cc(C)c1Oc1ccnc(Nc2ccc(C#N)cc2)n1`: the selectivity ratio in data set [1] turned out to be 186. For the same compound, the 50% effective concentration (EC50) is 0.452 µM in data set [2]; 0.029 µM in [4]; 0.17 µM in data set [5]; above 5.49 µM in [8]; 0.282 µM in [9]; 0.057 µM in data set [10]. The EC50 is above 5.49 µM in [11] and 0.913 µM in [14]. Moreover, the solubility in [3] was determined as 0.0271 mg/mL (≈ 52.8 µM); in [6], 0.0266 mg/mL (≈ 51.8 µM); in data set [7] it was 0.0204 mg/mL (≈ 39.7 µM). Besides, in data set [12], half-maximal cytotoxicity (CC50 at 120 h) was put at 5.49 µM. Also, the half-maximal inhibitory concentration (IC50) in [13] turned out to be 1.98 µM. The result with MT4 was inactive.
Consider `CCC(=O)N1CCC(=CC#Cc2cc(C)c(Oc3ccnc(Nc4ccc(C#N)cc4)n3)c(C)c2)CC1`, for which the selectivity ratio in data set [1] stood at 201. Further, the EC50 in data set [2] is 0.382 µM; in data set [4], 0.022 µM; in data set [5], 0.171 µM; in [8], above 4.42 µM; in [9], 0.253 µM; in data set [10] it was 0.057 µM. Also, the concentration for a half-maximal effect (EC50) is 1.3 µM in data set [11] and 0.772 µM in [14]. Besides, the solubility came out at 0.0622 mg/mL (≈ 127 µM) in [3], 0.0665 mg/mL (≈ 135 µM) in data set [6] and 0.0647 mg/mL (≈ 132 µM) in [7]. This compound also returned a CC50 at 120 h in data set [12] of 4.42 µM. For the same compound, the concentration for half-maximal inhibition (IC50) in [13] is 2.98 µM. For the same compound, the outcome with MT4 was inactive.
Take `Cc1cc(C#CC=C2CCNCC2)cc(C)c1Oc1ccnc(Nc2ccc(C#N)cc2)n1`: the selectivity ratio in [1] stood at 294. Further, the half-maximal effective concentration (EC50) in data set [2] is 0.211 µM; in data set [4], 0.016 µM; in data set [5], 0.204 µM; in [8] it was 1.46 µM; in data set [9], 0.231 µM; in [10] it was 0.039 µM. Further, the concentration for a half-maximal effect (EC50) in data set [11] amounted to 1.27 µM; in [14] it was 0.281 µM. Besides, the solubility in [3] was 0.0605 mg/mL (≈ 139 µM); in data set [6], 0.067 mg/mL (≈ 154 µM); in [7], 0.0473 mg/mL (≈ 109 µM). The CC50 at 120 h in [12] was determined as 4.81 µM. The IC50 in data set [13] came to 0.13 µM. Moreover, the result in the data set on MT4 was inactive.

The term EC50 denotes the concentration that produces a half-maximal response. What is called solubility is the concentration that dissolves in the medium under given conditions. As usually defined, the CC50 is the concentration giving 50% cytotoxicity. Read a high CC50 as lower toxicity to the cells. As a reminder, the IC50 is the concentration needed to halve the response being measured.
